In patent publication US20030004172A1, “Fused pyrimidinone matrix metalloproteinase inhibitors” (priority 2001, published 2003):

target: MMP-13CD (catalytic domain of collagenase-3) (Homo sapiens, UniProt P45452); assay: Thiopeptolide substrate hydrolysis inhibition assay, MMP-13CD; assay type: biochemical; details: Table I; thiopeptolide substrate, HEPES pH 7.0, 22° C.; read-out: MMP-13CD IC50
Excerpt: Thiopeptolide substrates show virtually no decomposition or hydrolysis at or below neutral pH in the absence of a matrix metalloproteinase enzyme.

Compound | IC50 [nM]
Cn1c(=O)n(Cc2ccccc2)c(=O)c2cc(C(=O)NCc3ccc(N)cc3)sc21 [Example 321, 3-Benzyl-1-methyl-2,4-dioxo-1,2,3,4-tetrahydro-thieno[2,3-d]pyrimidine-6-carboxylic acid 4-amino-benzylamide] | > 100000
Cn1c(=O)n(Cc2ccccc2)c(=O)c2cc(C(=O)OCc3ccoc3)sc21 [Example 207, 3-Benzyl-1-methyl-2,4-dioxo-1,2,3,4-tetrahydro-thieno[2,3-d]pyrimidine-6-carboxylic acid furan-3-ylmethyl ester] | 200
C=C(Cn1c(=O)c2cc(C(=O)OCc3ccccc3)sc2n(C)c1=O)C(=O)O [Example 115, 3-(2-Carboxy-allyl)-1-methyl-2,4-dioxo-1,2,3,4-tetrahydro-thieno[2,3-d]pyrimidine-6-carboxylic acid benzyl ester] | 330
COc1cccc(CNC(=O)c2cc3c(=O)n(CCOc4ccc(F)cc4)c(=O)n(C)c3s2)c1 [Example 236, 3-[2-(4-fluoro-phenoxy)-ethyl]-1-methyl-2,4-dioxo-1,2,3,4-tetrahydro-thieno[2,3-d]pyrimidine-6-carboxylic acid 3-methoxy-benzylamide] | 49.5
COC(=O)Nc1cc(Cn2c(=O)c3cc(C(=O)NCc4cccc(OC)c4)sc3n(C)c2=O)on1 [Example 298] | 490
CCC#CCn1c(=O)c2cc(C(=O)NCc3cccc(OC)c3)sc2n(C)c1=O [Example 291] | 120
COc1cc(CNC(=O)c2cc3c(=O)n(Cc4ccccc4)c(=O)n(C)c3s2)cc(OC)c1OC [Example 331, 3-Benzyl-1-methyl-2,4-dioxo-1,2,3,4-tetrahydro-thieno[2,3-d]pyrimidine-6-carboxylic acid 3,4,5-trimethoxy-benzylamide] | > 100000
Cn1c(=O)n(CCCCOc2ccccc2)c(=O)c2cc(C(=O)OCc3ccccc3)sc21 [Example 121, 1-Methyl-2,4-dioxo-3-(4-phenoxy-butyl)-1,2,3,4-tetrahydro-thieno[2,3-d]pyrimidine-6-carboxylic acid benzyl ester] | 250
COc1cccc(CNC(=O)c2cc3c(=O)n(CCc4cccc5ccccc45)c(=O)n(C)c3s2)c1 [Example 285] | 30000
COc1cccc(CNC(=O)c2cc3c(=O)n(Cc4ccc(I)cc4)c(=O)n(C)c3s2)c1 [Example 61, 3-(4-Iodo-benzyl)-1-methyl-2,4-dioxo-1,2,3,4-tetrahydro-thieno[2,3-d]pyrimidine-6-carboxylic acid 3-methoxy-benzylamide] | 45
COc1ccccc1CNC(=O)c1cc2c(=O)n(Cc3ccccc3)c(=O)n(C)c2s1 [Example 336, 3-Benzyl-1-methyl-2,4-dioxo-1,2,3,4-tetrahydro-thieno[2,3-d]pyrimidine-6-carboxylic acid 2-methoxy-benzylamide] | 30000
COc1cccc(CNC(=O)c2cc3c(=O)n(CC4CCC(C(=O)O)CC4)c(=O)n(C)c3s2)c1 (stereo not drawn) [Example 90, 4-[6-(3-Methoxy-benzylcarbamoyl)-1-methyl-2,4-dioxo-1,4-dihydro-2H-thieno[2,3-d]pyrimidin-3-ylmethyl]-cyclohexanecarboxylic acid] | 5.43
O=C(OCc1ccoc1)c1cc2c(=O)n(Cc3ccccc3)c(=O)[nH]c2s1 [Example 71, 3-Benzyl-2,4-dioxo-1,2,3,4-tetrahydro-thieno[2,3-d]pyrimidine-6-carboxylic acid furan-3-ylmethyl ester] | 13000
CCOCCOCCOC(=O)c1cc2c(=O)n(Cc3ccccc3)c(=O)n(C)c2s1 [Example 177, 3-Benzyl-1-methyl-2,4-dioxo-1,2,3,4-tetrahydro-thieno[2,3-d]pyrimidine-6-carboxylic acid 2-(2-ethoxy-ethoxy)-ethyl ester] | > 100000
Cc1cc(Cn2c(=O)c3cc(C(N)=O)sc3n(C)c2=O)ccc1C(=O)O [Example 249] | 7800
COc1ccccc1CCNC(=O)c1cc2c(=O)n(Cc3ccccc3)c(=O)n(C)c2s1 [Example 348, 3-Benzyl-1-methyl-2,4-dioxo-1,2,3,4-tetrahydro-thieno[2,3-d]pyrimidine-6-carboxylic acid[2-(2-methoxy-phenyl)-ethyl]-amide] | 30000
Cn1c(=O)n(Cc2ccccc2)c(=O)c2cc(C(=O)OCCC#N)sc21 [Example 209, 3-Benzyl-1-methyl-2,4-dioxo-1,2,3,4-tetrahydro-thieno[2,3-d]pyrimidine-6-carboxylic acid 2-cyano-ethyl ester] | > 100000
Cn1c(=O)n(Cc2ccccc2)c(=O)c2cc(C(=O)OCC3CCCN3)sc21 (stereo not drawn) [Example 199, 3-Benzyl-1-methyl-2,4-dioxo-1,2,3,4-tetrahydro-thieno[2,3-d]pyrimidine-6-carboxylic acid pyrrolidin-2-ylmethyl ester] | 17000

Compound | IC50 [nM]
O=C(OCCc1ccccc1)c1cc2c(=O)n(Cc3ccccc3)c(=O)[nH]c2s1 [Example 12, 3-Benzyl-2,4-dioxo-1,2,3,4-tetrahydro-thieno[2,3-d]pyrimidine-6-carboxylic acid 2-phenylethyl ester] | > 100000
Cn1c(=O)n(Cc2ccc(C(=O)O)cc2)c(=O)c2cc(C(=O)NCc3ccc(Cl)cc3)sc21 [Example 58, 4-[6-(4-Chloro-benzylcarbamoyl)-1-methyl-2,4-dioxo-1,4-dihydro-2H-thieno[2,3-d]pyrimidin-3-ylmethyl]-benzoic acid] | 11.5
COC(=O)c1ccc(Cn2c(=O)c3cc(C(=O)NCc4cccc(OC)c4)sc3n(C)c2=O)cc1C [Example 241, 4-[6-(3-Methoxy-benzylcarbamoyl)-1-methyl-2,4-dioxo-1,4-dihydro-2H-thieno[2,3-d]pyrimidin-3-ylmethyl]-2-methyl-benzoic acid methyl ester] | 19.5
Cn1c(=O)n(Cc2ccc(C(=O)OC(C)(C)C)cc2)c(=O)c2cc(C(=O)NCc3ccc(S(C)(=O)=O)cc3)sc21 [Example 80, 4-[6-(4-Methanesulfonyl-benzylcarbamoyl)-1-methyl-2,4-dioxo-1,4-dihydro-2H-thieno[2,3-d]pyrimidin-3-ylmethyl]-benzoic acid tert-butyl ester] | 25000
Cn1c(=O)n(Cc2ccccc2)c(=O)c2cc(C(=O)OC(C#N)c3ccccc3)sc21 (stereo not drawn) [Example 211, 3-Benzyl-1-methyl-2,4-dioxo-1,2,3,4-tetrahydro-thieno[2,3-d]pyrimidine-6-carboxylic acid cyano-phenyl-methyl ester] | 2100
COc1cccc(CNC(=O)c2cc3c(=O)n(Cc4cnc(C)s4)c(=O)n(C)c3s2)c1 [Example 86, 1-Methyl-3-(2-methyl-thiazol-5-ylmethyl)-2,4-dioxo-1,2,3,4-tetrahydro-thieno[2,3-d]pyrimidine-6-carboxylic acid 3-methoxy-benzylamide] | 1400
COc1cccc(CCNC(=O)c2cc3c(=O)n(Cc4ccccc4)c(=O)n(C)c3s2)c1 [Example 342, 3-Benzyl-1-methyl-2,4-dioxo-1,2,3,4-tetrahydro-thieno[2,3-d]pyrimidine-6-carboxylic acid[2-(3-methoxy-phenyl)-ethyl]-amide] | > 100000
COc1ccc(CNC(=O)c2cc3c(=O)n(Cc4ccc(-c5noc(=S)[nH]5)cc4)c(=O)n(C)c3s2)cc1 [Example 222, 1-Methyl-2,4-dioxo-3-[4-(5-thioxo-4,5-dihydro-1,2,4-oxadiazol-3-yl)-benzyl]-1,2,3,4-tetrahydro-thieno[2,3-d]pyrimidine-6-carboxylic acid 4-methoxy-benzylamide] | 4.2
Cn1c(=O)n(Cc2ccccc2)c(=O)c2cc(C(=O)OCc3ccc(Cl)cc3)sc21 [Example 185, 3-Benzyl-1-methyl-2,4-dioxo-1,2,3,4-tetrahydro-thieno[2,3-d]pyrimidine-6-carboxylic acid 4-chloro-benzyl ester] | 14
Cn1c(=O)n(Cc2ccccc2)c(=O)c2cc(C(=O)NCCc3ccccc3)sc21 [Example 214, 3-Benzyl-1-methyl-2,4-dioxo-1,2,3,4-tetrahydro-thieno[2,3-d]pyrimidine-6-carboxylic acid phenethyl-amide] | 20000
Cn1c(=O)n(CCc2ccccc2)c(=O)c2cc(C(=O)OCc3ccccc3)sc21 [Example 104, 1-Methyl-2,4-dioxo-3-phenethyl-1,2,3,4-tetrahydro-thieno[2,3-d]pyrimidine-6-carboxylic acid benzyl ester] | 1100
COc1cccc(CNC(=O)c2cc3c(=O)n(CCOc4ccc(Cl)cc4)c(=O)n(C)c3s2)c1 [Example 237, 3-[2-(4-chloro-phenoxy)-ethyl]-1-methyl-2,4-dioxo-1,2,3,4-tetrahydro-thieno[2,3-d]pyrimidine-6-carboxylic acid 3-methoxy-benzylamide] | 92.5
CC/C=C/Cn1c(=O)c2cc(C(=O)NCc3ccc(OC)cc3)sc2n(C)c1=O [Example 260] | 63
Cn1c(=O)n(Cc2cccc3ccccc23)c(=O)c2cc(C(=O)OCc3ccccc3)sc21 [Example 138, 1-Methyl-3-naphthalen-1-ylmethyl-2,4-dioxo-1,2,3,4-tetrahydro-thieno[2,3-d]pyrimidine-6-carboxylic acid benzyl ester] | 660
COc1ccc(CNC(=O)c2cc3c(=O)n(CC[C@@H](C)CCC=C(C)C)c(=O)n(C)c3s2)cc1 [Example 255] | 14000
CCN(CC)CC(C)OC(=O)c1cc2c(=O)n(Cc3ccccc3)c(=O)n(C)c2s1 (stereo not drawn) [Example 152, 3-Benzyl-1-methyl-2,4-dioxo-1,2,3,4-tetrahydro-thieno[2,3-d]pyrimidine-6-carboxylic acid 2-diethylamino-1-methyl-ethyl ester] | 9900
C=CCCCCn1c(=O)c2cc(C(=O)OCc3ccccc3)sc2n(C)c1=O [Example 124, 3-Hex-5-enyl-1-methyl-2,4-dioxo-1,2,3,4-tetrahydro-thieno[2,3-d]pyrimidine-6-carboxylic acid benzyl ester] | 110
Cn1c(=O)n(Cc2ccccc2)c(=O)c2cc(C(=O)NCc3ccc(Br)cc3)sc21 [Example 350, 3-Benzyl-1-methyl-2,4-dioxo-1,2,3,4-tetrahydro-thieno[2,3-d]pyrimidine-6-carboxylic acid 4-bromo-benzylamide] | 930
